# Measured values published in paper PMC4976923, “Potent Allosteric Dengue Virus NS5 Polymerase Inhibitors: Mechanism of Action and Resistance Profiling” (PLoS Pathogens, 2016).
# Tests used:
# DENV1 FL NS5 = target: T1, DENV1 FL NS5 (Dengue virus type 1, UniProt P17763); settings: read-out: DENV FL NS5 de novo initiation FAPA, IC50, DENV1; cited from earlier work
# T1 construct: 100 nM DENV FL NS5 protein was added; made in house
# [1] = test system: clinical DENV2 isolate MY97-10340; experiment: DENV2 infected A549 cells, high content imaging (HCI); format: cell-based; settings: Dengue virus, 48 hr
# Procedure: (§1) 2 Co mpound testing with DENV dn I FAPA assays. Final dn I assa y reaction mixtures
# (§2) 3 contained 100 nM DENV 5 ´UTR-L-3´UTR IVT RNA, 20 µ M ATP, 20 µM GTP, 20 µM
# (§3) 4 UTP, 5 µM ATTO -CTP, and 100 nM of DENV FL NS5 protein in 15 µl in assa y buffer
# (§4) 5 comprising 50 mM Tris/ HCl, pH 7.5, 10 mM KCl, 1 mM MgCl2, 0.3 mM MnCl2 (DENV2
# (§5) 6 and 4) or 1 mM MnCl 2 (DENV1 and 3), 0.001% Triton- X-100 and 10 µ M cystein e [ 1] . To
# (§6) 7 perform dose-respons e inhibition measurements, compounds from 0- 20 or - 100 µM
# (§7) 8 concentr ations are two -fold seriall y diluted into 384-well black opaqu e plat es (Corning
# (§8) 9 Costar), after which 100 nM DENV FL NS5 protein was added into resp ect ive wells. The
# (§9) 10 plates wer e sealed, b riefl y shak en and centrif uged at 1500 rpm for 30 sec and incubated at RT
# (§10) 11 for 15 min. Thereafter,RNA and ATTO -CTP, ATP, GTP and UTP were added to the wells to
# (§11) 12 start the reactions. The pl ates wer e re-seal ed, shaken and centrifuged as before, followed b y
# (§12) 13 incubation RT for 120 min. […]
# (§13) 15 intestinal phosphatase (CIP), re- incubation at RT for 60 min and read on a Tecan Safire II
# (§14) 16 microplate reader. […]
# (§15) 8 DENV envelope protein ) and DRAQ5 (for nucl ear DNA) . Quantifications of DENV
# (§16) 9 envelope protein were determined using the Opera high content imaging s ystem and anal ysis […]
# (§17) 17 µM concentrations. At 48 hr of post-incubation, r enilla luciferas e activities were measured […]
# DENV1, strain MY97-10245 = experiment: DENV1 infected A549 cells, high content imaging (HCI); format: cell-based; settings: 48 hr
# Procedure: as §1, §2, §3, §4, §5, §6, §7, §8, §9, §10, §11, §12, §13, §14, §15, §16, §17
# DENV4, strain MY01-22713 = experiment: DENV4 infected A549 cells, high content imaging (HCI); format: cell-based; settings: 48 hr
# Procedure: as §1, §2, §3, §4, §5, §6, §7, §8, §9, §10, §11, §12, §13, §14, §15, §16, §17
# DENV3 strain MY05-34640 = experiment: DENV3 infected A549 cells, high content imaging (HCI); format: cell-based; settings: 48 hr
# Procedure: as §1, §2, §3, §4, §5, §6, §7, §8, §9, §10, §11, §12, §13, §14, §15, §16, §17
# T1 sequence (P17763 2494-3392): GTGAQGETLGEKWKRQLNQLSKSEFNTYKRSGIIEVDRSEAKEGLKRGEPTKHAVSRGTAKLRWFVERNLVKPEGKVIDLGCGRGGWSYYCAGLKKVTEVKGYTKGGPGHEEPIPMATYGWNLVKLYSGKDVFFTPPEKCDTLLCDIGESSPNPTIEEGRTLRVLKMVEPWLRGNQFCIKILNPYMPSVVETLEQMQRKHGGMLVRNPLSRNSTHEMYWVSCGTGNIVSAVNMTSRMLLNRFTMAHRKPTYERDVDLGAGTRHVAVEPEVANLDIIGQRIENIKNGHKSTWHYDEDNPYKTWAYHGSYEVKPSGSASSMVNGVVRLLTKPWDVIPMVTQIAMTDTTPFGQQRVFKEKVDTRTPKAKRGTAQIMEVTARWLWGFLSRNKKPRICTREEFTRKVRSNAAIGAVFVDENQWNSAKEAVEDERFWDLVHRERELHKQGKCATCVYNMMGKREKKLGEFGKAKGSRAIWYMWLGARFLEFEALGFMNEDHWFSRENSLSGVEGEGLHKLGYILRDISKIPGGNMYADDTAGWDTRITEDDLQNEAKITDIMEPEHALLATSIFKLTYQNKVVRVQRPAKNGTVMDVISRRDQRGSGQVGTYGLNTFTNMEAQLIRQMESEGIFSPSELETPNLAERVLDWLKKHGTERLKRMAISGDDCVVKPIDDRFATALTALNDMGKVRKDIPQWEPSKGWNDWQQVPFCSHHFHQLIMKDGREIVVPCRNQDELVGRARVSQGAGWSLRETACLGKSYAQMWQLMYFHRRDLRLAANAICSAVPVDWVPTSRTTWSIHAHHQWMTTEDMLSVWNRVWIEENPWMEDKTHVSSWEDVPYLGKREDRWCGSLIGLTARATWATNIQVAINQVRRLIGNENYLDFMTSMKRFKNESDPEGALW
smiles,measurement,setting,value
COc1cccc(S(=O)(=O)NC(=O)c2cc(-c3ccc(C#CCO)s3)c(OC)cc2OC)c1 [Compound 27],IC50,DENV1 FL NS5,68 nM
COc1cccc(S(=O)(=O)NC(=O)c2cc(-c3ccc(C#CCO)s3)c(OC)cc2C)c1 [Compound 26i],EC50,[1],26.9 µM
same,EC50,"DENV1, strain MY97-10245",15.2 µM
same,EC50,"DENV4, strain MY01-22713",20.4 µM
same,EC50,DENV3 strain MY05-34640,16.8 µM
